Experimental findings from patent US9556201B2, “Bicyclic pyridines and analogs as sirtuin modulators” (GLAXOSMITHKLINE LLC, priority 2009, dated 2017) are described below.

For experiment [1], the system named is TNF. Briefly: TNF IC50 (column of Table 1; method not in the text shown). Type of experiment: cell-based.
Experiment [2] deals with T1, SIRT1 (Homo sapiens, UniProt Q96EB6).
T1 sequence (Q96EB6 1-747): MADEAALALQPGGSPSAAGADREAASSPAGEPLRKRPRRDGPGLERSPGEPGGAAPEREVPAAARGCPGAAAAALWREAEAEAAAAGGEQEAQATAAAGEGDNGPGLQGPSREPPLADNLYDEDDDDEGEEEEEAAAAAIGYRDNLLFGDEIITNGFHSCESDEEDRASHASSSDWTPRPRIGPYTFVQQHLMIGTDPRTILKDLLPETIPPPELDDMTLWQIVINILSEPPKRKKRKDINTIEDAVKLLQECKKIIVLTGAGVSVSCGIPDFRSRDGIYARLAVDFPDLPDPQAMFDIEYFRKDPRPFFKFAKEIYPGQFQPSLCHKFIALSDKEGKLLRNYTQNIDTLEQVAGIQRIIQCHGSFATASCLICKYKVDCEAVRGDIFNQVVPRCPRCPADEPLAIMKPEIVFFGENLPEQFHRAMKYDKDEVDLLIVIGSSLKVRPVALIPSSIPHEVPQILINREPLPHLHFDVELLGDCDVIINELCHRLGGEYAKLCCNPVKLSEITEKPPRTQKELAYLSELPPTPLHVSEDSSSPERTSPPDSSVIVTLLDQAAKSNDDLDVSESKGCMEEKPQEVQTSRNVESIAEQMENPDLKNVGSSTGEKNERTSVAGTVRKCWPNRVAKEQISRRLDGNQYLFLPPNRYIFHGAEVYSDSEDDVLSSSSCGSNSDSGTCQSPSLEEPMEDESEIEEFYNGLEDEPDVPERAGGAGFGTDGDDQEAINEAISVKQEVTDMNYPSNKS
Briefly: Mass spectrometry based assay to identify modulators of SIRT1 activity (deacetylation of p53-based acetylated peptide substrate). Type of experiment: biochemical. Particulars: for Emax: 25 min, SIRT1 activation, read-out: % FOLD ACT. (percent maximum fold activation). In a few lines: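 Deacetylation of a modified p53 acetyl-lysine peptide ([…], 5TMR-labelled, Nle for Met) by 10 nM N-His SIRT1 with 120 μM βNAD+, pH 8, 25 min, 25 °C. Substrate and product masses measured by MS after formic acid quench; nicotinamide defines maximal inhibition.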

One may read the IC50 as the concentration needed to halve the response being measured. A higher IC50 goes with lower potency. Take `O=C(Nc1cccc(N2CC3(CCO3)C2)n1)N1CCOc2ccc(-c3cccc(C(F)(F)F)c3)nc21` [Compound 823, N-(6-(1-oxa-6-azaspiro[3.3]heptan-6-yl)pyridin-2-yl)-6-(3-(trifluoromethyl)phenyl)-2H-pyrido[3,2-b][1,4]oxazine-4(3H)-carboxamide]: the IC50 in experiment [1] is not below 20 µM. For the same molecule, in experiment [2], the EC1.5 (concentration giving 1.5-fold activation) was less than 1000 nM and the Emax is more than 200%.
In turn, `O=C(Nc1ccnc(OC[C@H](O)CO)n1)N1CCC(F)(F)c2ccc(-c3cccc(C(F)(F)F)c3)nc21` [Compound 825] showed an IC50 in experiment [1] of less than 20 µM. Also, in experiment [2], the EC1.5 (concentration giving 1.5-fold activation) is less than 1000 nM and the Emax was more than 200%.
With `COc1nccc(NC(=O)N2CCCC(=O)c3ccc(-c4cccc(C(F)(F)F)c4)nc32)n1` [Compound 830], the IC50 in experiment [1] was not below 20 µM. Also, in experiment [2], the EC1.5 (concentration giving 1.5-fold activation) is less than 1000 nM and the Emax was more than 200%.
`CC1(C)CCN(C(=O)Nc2ccncn2)c2nc(-c3cccc(C(F)(F)F)c3)ccc21` [Compound 838] showed an IC50 in experiment [1] not below 20 µM. Further, in experiment [2], the EC1.5 (concentration giving 1.5-fold activation) was less than 1000 nM and the Emax was more than 200%.
`Cc1csc(NC(=O)N2CCC(C)(C)c3ccc(-c4cccc(C(F)(F)F)c4)nc32)n1` [Compound 839] gave an IC50 in experiment [1] of less than 20 µM. Besides, in experiment [2], the EC1.5 (concentration giving 1.5-fold activation) is less than 1000 nM and the Emax is more than 200%.
The corresponding values for `CC1(C)CCN(C(=O)Nc2cccc(OC[C@@H](O)CO)n2)c2nc(-c3cccc(C(F)(F)F)c3)ccc21` [Compound 840] are less than 20 µM, less than 1000 nM and more than 200%.
The corresponding values for `CC1(C)CCN(C(=O)Nc2ccnc(OC[C@H](O)CO)n2)c2nc(-c3cccc(C(F)(F)F)c3)ccc21` [Compound 845] are less than 20 µM, less than 1000 nM and more than 200%.
The corresponding values for `CC1(C)CCN(C(=O)Nc2cncc(OCC(O)CO)n2)c2nc(-c3cccc(C(F)(F)F)c3)ccc21` (stereo not drawn) [Compound 848] are less than 20 µM, less than 1000 nM and more than 200%.
In turn, `O=C(Nc1ccncc1)N1CCc2ccc(-c3cccc(C(F)(F)F)c3)nc21` [Compound 849] gave a half-inhibitory concentration (IC50) in experiment [1] of less than 20 µM. In addition, in experiment [2], the EC1.5 (concentration giving 1.5-fold activation) is less than 1000 nM and the Emax is more than 200%.
The corresponding values for `O=C(Nc1ccncn1)N1CCc2ccc(-c3cccc(C(F)(F)F)c3)nc21` [Compound 850] are not below 20 µM, less than 1000 nM and more than 200%.
The corresponding values for `Cc1csc(NC(=O)N2CCc3ccc(-c4cccc(C(F)(F)F)c4)nc32)n1` [Compound 851] are not below 20 µM, less than 1000 nM and more than 200%.
In experiment [1], `O=C(Nc1cc(OCC(O)CO)ccn1)N1CCC(F)(F)c2ccc(-c3cccc(C(F)(F)F)c3)nc21` (stereo not drawn) [Compound 860] gave an IC50 of less than 20 µM. In experiment [2], the EC1.5 (concentration giving 1.5-fold activation) was less than 1000 nM and the Emax was more than 200%.
The corresponding values for `O=C(Nc1ccccn1)N1CCc2ccc(-c3cccc(C(F)(F)F)c3)nc21` [Compound 861, N-(pyridin-2-yl)-6-(3-(trifluoromethyl)phenyl)-2,3-dihydro-1H-pyrrolo[2,3-b]pyridine-1-carboxamide] are not below 20 µM, less than 1000 nM and more than 200%.
The corresponding values for `O=C(Nc1ccnc(OC[C@H](O)CO)c1)N1CCCOc2ccc(-c3cccc(Cl)c3)nc21` [Compound 864] are less than 20 µM, 1000 to 25000 nM and more than 200%.
The corresponding values for `O=C(Nc1cncc(OCC(O)CO)n1)N1CCc2ccc(-c3cccc(C(F)(F)F)c3)nc21` (stereo not drawn) [Compound 868] are less than 20 µM, less than 1000 nM and more than 200%.
In experiment [1], `O=C(Nc1cccc(N2CC3(CCO3)C2)n1)N1CCc2ccc(-c3cccc(C(F)(F)F)c3)nc21` [Compound 869] registered an IC50 of less than 20 µM. In experiment [2], the EC1.5 (concentration giving 1.5-fold activation) was less than 1000 nM and the Emax was more than 200%.
Take `O=C(Nc1ccncc1F)N1CCc2ccc(-c3cccc(C(F)(F)F)c3)nc21` [Compound 870]: the IC50 in experiment [1] is less than 20 µM. Moreover, in experiment [2], the EC1.5 (concentration giving 1.5-fold activation) is less than 1000 nM and the Emax was more than 200%.
The corresponding values for `COc1cc(NC(=O)N2CCCOc3ccc(-c4cccc(Cl)c4)nc32)nc(OC)n1` [Compound 873] are not below 20 µM, less than 1000 nM and more than 200%.
The corresponding values for `O=C(Nc1ccnc(OCC(O)CO)n1)N1CCc2ccc(-c3cccc(C(F)(F)F)c3)nc21` (stereo not drawn) [Compound 874] are not below 20 µM, less than 1000 nM and more than 200%.
`O=C(Nc1cc(OCC(O)CO)ccn1)N1CCc2ccc(-c3cccc(C(F)(F)F)c3)nc21` (stereo not drawn) [Compound 875] gave an IC50 in experiment [1] of less than 20 µM. Further, in experiment [2], the EC1.5 (concentration giving 1.5-fold activation) is less than 1000 nM and the Emax is more than 200%.
The corresponding values for `O=C(Nc1ccnc(OCC(O)CO)n1)N1CCCOc2ccc(-c3cccc(Cl)c3)nc21` (stereo not drawn) [Compound 876] are less than 20 µM, less than 1000 nM and more than 200%.
The corresponding values for `O=C(Nc1cccc(N2CC3(COC3)C2)n1)N1CCc2ccc(-c3cccc(C(F)(F)F)c3)nc21` [Compound 877] are less than 20 µM, less than 1000 nM and more than 200%.
The corresponding values for `O=C(Nc1cnc(OC[C@H](O)CO)cn1)N1CCCOc2ccc(-c3cccc(Cl)c3)nc21` [Compound 878] are less than 20 µM, less than 1000 nM and more than 200%.
In turn, `O=C(Nc1ccc2nccn2c1)N1CCCOc2ccc(-c3cccc(Cl)c3)nc21` [Compound 880] yielded an IC50 in experiment [1] of less than 20 µM. In experiment [2], the EC1.5 (concentration giving 1.5-fold activation) is less than 1000 nM and the Emax is more than 200%.
The corresponding values for `O=C(Nc1ccc2nccnc2c1)N1CCCOc2ccc(-c3cccc(Cl)c3)nc21` [Compound 881] are not below 20 µM, less than 1000 nM and more than 200%.
The corresponding values for `COc1cc(NC(=O)N2CCCOc3ccc(-c4cccc(Cl)c4)nc32)ccn1` [Compound 882] are not below 20 µM, less than 1000 nM and more than 200%.
In experiment [1], `Cn1cc2ccc(NC(=O)N3CCCOc4ccc(-c5cccc(Cl)c5)nc43)cc2n1` [Compound 883] yielded an IC50 of less than 20 µM. Besides, in experiment [2], the EC1.5 (concentration giving 1.5-fold activation) is less than 1000 nM and the Emax is more than 200%.
Molecule `O=C(Nc1cccnc1)N1CCCc2ccc(-c3cccnc3)nc21` [Compound 886] came in with an IC50 in experiment [1] not below 20 µM. In experiment [2], the EC1.5 (concentration giving 1.5-fold activation) lay in the range of 1000 to 25000 nM and the Emax is more than 200%.
The corresponding values for `O=C(Nc1cccnc1)N1CCOc2ccc(-c3cccc(C(F)(F)F)c3)nc21` [Compound 887] are not below 20 µM, less than 1000 nM and more than 200%.
